From US20240051960A1, “SPIROCYCLIC IMIDAZOLIDINONES AND IMIDAZOLIDINEDIONES FOR TREATMENT OF LIGHT CHAIN AMYLOIDOSIS” (Protego Biopharma, Inc., priority 2021, published 2024) come the findings set out here.

This assay concerns Recombinant amyloidogenic full length light chain protein WIL-FL T46L. The assay is described as follows: Differential Scanning Fluorimetry (thermal shift) assay. The assay is classed as binding. The note with it: protein and compounds incubated at RT for 30 min before adding the dye, Thermal Shift Protein Stability Kit, 96-well plates. As to the method: Differential Scanning Fluorimetry Assay
The stabilization effects the compounds have on the immunoglobulin light chain protein is quantitively measured using a thermal shift assay. Recombinant amyloidogenic full length light chain protein WIL-FL T46L is produced in E. coli, purified, and used in the assay. The Thermal Shift Protein Stability Kit from Biotium is used and the assay is done in 96-well Plates following the manufacture's instructions. The protein and compounds are incubated at RT for 30 min before adding the dye and subjected to the thermal shift assay. The thermal stability of each sample is then determined using standard curve fitting methods.
Compounds that induce shifts in the ranges below are listed in the table below: • 0-0.5° C.=* • >0.5-1° C.=** • >1-1.5° C.=*** • >1.5° C.=****

In the case of `O=C(CN1C(=O)NC2(CCN(c3c[nH]c(=O)[nH]c3=O)CC2)C1=O)Nc1ccc(C(F)(F)F)cc1` [Compound 90], the “Thermal Shift” value is on record as “**** (>1.5° C.=****)”.
